How the values were obtained:
[1] = target: T1, Serine/threonine-protein kinase Chk1 (Homo sapiens) (UniProt O14757); assay: Selectivity interaction (KinomeScan (DiscoverX)) EUB0000666a CHEK1; conditions: at 10 µM
T1 sequence (whole entry): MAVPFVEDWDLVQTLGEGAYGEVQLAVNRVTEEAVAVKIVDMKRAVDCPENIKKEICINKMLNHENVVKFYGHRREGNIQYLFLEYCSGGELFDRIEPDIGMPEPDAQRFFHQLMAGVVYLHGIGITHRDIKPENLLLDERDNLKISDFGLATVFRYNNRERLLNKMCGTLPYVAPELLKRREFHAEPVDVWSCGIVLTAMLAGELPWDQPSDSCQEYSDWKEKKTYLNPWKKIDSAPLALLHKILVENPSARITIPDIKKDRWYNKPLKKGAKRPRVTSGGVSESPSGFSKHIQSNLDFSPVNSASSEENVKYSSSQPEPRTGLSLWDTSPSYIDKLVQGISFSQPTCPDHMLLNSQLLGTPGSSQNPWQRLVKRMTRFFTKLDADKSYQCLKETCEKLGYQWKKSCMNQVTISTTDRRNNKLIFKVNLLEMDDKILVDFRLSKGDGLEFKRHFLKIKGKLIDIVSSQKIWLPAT

[2] = target: T2, Tyrosine-protein kinase JAK3 (Homo sapiens) (UniProt P52333); conditions: at 10 µM
T2 sequence (whole entry): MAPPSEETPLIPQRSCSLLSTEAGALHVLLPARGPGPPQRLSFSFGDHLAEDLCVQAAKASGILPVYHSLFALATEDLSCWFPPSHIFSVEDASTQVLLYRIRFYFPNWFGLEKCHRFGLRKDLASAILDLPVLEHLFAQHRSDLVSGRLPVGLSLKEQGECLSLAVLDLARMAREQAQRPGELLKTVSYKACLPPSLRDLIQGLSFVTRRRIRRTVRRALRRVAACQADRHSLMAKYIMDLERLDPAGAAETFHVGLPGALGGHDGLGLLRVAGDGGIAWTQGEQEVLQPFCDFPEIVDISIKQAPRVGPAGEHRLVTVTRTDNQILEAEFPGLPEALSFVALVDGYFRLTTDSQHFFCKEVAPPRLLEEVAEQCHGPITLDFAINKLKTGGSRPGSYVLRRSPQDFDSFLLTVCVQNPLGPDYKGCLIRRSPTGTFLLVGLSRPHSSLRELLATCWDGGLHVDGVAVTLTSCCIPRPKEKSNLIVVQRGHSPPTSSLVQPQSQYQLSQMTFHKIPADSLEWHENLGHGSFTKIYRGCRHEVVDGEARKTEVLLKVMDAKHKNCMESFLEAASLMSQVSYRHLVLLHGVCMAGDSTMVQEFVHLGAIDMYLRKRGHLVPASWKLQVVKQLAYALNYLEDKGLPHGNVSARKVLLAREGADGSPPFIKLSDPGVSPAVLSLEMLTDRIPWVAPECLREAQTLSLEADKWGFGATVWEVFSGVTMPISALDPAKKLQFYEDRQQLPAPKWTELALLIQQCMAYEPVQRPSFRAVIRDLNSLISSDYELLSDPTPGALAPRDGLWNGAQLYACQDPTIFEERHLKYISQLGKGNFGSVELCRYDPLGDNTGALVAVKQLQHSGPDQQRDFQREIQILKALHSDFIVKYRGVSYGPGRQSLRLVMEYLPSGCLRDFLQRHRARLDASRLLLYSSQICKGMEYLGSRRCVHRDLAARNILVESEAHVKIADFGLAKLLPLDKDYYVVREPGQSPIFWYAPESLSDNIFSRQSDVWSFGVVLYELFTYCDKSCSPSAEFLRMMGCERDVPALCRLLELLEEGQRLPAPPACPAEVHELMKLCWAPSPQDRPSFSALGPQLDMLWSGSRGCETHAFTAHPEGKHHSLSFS

[3] = target: T3, Myosin-IIIb (Homo sapiens) (UniProt Q8WXR4); assay: Selectivity interaction (KinomeScan (DiscoverX)) EUB0001619a MYO3B; conditions: at 1 µM
T3 sequence (whole entry): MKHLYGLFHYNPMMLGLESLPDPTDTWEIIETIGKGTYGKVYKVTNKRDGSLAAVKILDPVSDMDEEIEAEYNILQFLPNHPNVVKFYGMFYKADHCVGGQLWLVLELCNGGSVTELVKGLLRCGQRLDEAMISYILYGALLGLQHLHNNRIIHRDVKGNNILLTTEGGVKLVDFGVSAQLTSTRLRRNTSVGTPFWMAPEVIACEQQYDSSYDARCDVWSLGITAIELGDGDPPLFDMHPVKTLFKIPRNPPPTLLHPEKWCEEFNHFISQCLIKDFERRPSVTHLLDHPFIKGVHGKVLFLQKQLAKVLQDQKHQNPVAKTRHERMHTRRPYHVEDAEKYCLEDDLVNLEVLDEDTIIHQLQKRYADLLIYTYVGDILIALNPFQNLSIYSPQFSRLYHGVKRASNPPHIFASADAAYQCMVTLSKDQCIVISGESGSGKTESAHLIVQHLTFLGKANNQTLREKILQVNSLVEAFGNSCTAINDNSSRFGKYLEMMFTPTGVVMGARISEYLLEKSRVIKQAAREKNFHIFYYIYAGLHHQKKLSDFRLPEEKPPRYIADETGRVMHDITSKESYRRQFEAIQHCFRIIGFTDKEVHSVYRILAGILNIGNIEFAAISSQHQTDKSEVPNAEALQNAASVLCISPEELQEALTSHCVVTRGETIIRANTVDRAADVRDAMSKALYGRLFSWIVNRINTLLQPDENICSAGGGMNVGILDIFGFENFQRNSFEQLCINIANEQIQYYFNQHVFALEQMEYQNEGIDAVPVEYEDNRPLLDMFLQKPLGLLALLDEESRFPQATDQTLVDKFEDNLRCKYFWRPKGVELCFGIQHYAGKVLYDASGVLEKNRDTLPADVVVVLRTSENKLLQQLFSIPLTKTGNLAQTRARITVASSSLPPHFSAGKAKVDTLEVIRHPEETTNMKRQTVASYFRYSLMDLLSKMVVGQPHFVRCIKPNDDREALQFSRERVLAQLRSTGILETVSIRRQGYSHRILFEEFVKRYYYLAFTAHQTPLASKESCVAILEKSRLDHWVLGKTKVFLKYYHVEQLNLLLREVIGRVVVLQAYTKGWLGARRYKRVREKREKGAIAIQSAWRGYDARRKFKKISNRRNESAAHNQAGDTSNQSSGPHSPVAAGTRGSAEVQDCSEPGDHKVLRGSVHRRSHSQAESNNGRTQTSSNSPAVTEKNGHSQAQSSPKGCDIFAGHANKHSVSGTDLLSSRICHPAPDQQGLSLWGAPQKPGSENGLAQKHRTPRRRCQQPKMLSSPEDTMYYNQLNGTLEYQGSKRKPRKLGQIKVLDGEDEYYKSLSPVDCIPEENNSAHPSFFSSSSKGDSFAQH

`O=C(NOC[C@H](O)CO)c1ccc(F)c(F)c1Nc1ccc(I)cc1F` gave a % of control [1] of 74%.

Work on `Cc1cc([C@@H](C)Nc2ccccc2C(=O)O)c2nc(N3CCOCC3)cc(=O)n2c1` [AZD-6482] yielded a % of control [2] of 94%.

With `N#Cc1cccc(-c2c[nH]c3ncnc(N4CCOCC4)c23)c1` the % of control [3] was 100%.

From ChEMBL document CHEMBL5465560, “Selectivity Literature for EUbOPEN Chemogenomic Library” (2024)
